According to patent US20150246093A1, “ORAL FORMULATIONS OF ANGIOTENSIN” (TARIX PHARMACEUTICALS LTD., priority 2012, published 2015):
Where “and” joins values, the source holds several entries; their conditions need not be identical. Equal values may be shown once. Read-outs that look alike come from different tables or passages of the source.

Assay: Pharmacokinetics after subcutaneous (SC) administration of angiotensin (1-7) in PBS, plasma LC-MS
Format: in vivo, female Sprague-Dawley rats
Settings: for AUC(0-t): read-out: AUC0-90 (converted)
Protocol: Initially, a baseline pharmacokinetic profile in female Sprague-Dawley rats was obtained by subcutaneous (SC) administration of angiotensin (1-7) in phosphate buffered saline (PBS). […]
After extraction, the samples were then transferred to ice-cold tubes containing a protease inhibitor cocktail. The samples were kept on ice until they were centrifuged at 4° C. to obtain plasma. The plasma supernatants were then frozen −70° C. until analysis using an LC-MS assay.
Table 1 summarized exemplary individual baseline A(1-7) levels achieved at the designated time points and the non-compartmental PK values. Three rats were administered 0.3 mL of 10 mg/mL A(1-7) as a subcutaneous injection. The pharmacokinetics of A(1-7) were determined using a non-compartmental model, where individual pharmacokinetics were determined. The mean concentration for each time point was calculated and the PK values for these mean values were estimated. The Tmax was achieved approximately 10 to 90 minutes after administration. Half-lives are approximately 15 minutes for this treatment group. Total mean A(1-7) exposure over the observation period was 614 ng*min/mL with a range of 585 to 656 ng*min/mL.

[1] = SC 0.3 mL of 10 mg/mL A(1-7) in PBS, individual rats

For `CC[C@H](C)[C@H](NC(=O)[C@H](Cc1ccc(O)cc1)NC(=O)[C@@H](NC(=O)[C@H](CCCNC(=N)N)NC(=O)[C@@H](N)CC(=O)O)C(C)C)C(=O)N[C@@H](Cc1c[nH]cn1)C(=O)N1CCC[C@H]1C(=O)O` [Angiotensin (1-7), Asp^1-Arg^2-Val^3-Tyr^4-Ile^5-His^6-Pro^7], the “Total mean A(1-7) exposure over the observation period” value (0.3 mL of 10 mg/mL A(1-7) subcutaneous injection, three rats) was 614 ng·min/mL, the AUC0-90 [1] was 598.1 ng·min/mL and 656.1 ng·min/mL and the Cmax [1] was 15.7 ng/mL and 17.4 ng/mL. For the same compound, the Half-Life [1] was 15.58 min, the “Angiotensin (1-7) concentration” value (SC 0.3 mL of 10 mg/mL A(1-7) in PBS, time point 0 min (before injection), individual rats) was 0.121 ng/mL and 10.2 ng/mL and 1.41 ng/mL and the “Angiotensin (1-7) concentration” value (SC 0.3 mL of 10 mg/mL A(1-7) in PBS, time point 5 min, individual rats) was 0.120 ng/mL and 7.47 ng/mL and 4.37 ng/mL. The “Angiotensin (1-7) concentration” value (SC 0.3 mL of 10 mg/mL A(1-7) in PBS, time point 10 min, individual rats) was 18.6 ng/mL and 0.94 ng/mL and 1.09 ng/mL, the “Angiotensin (1-7) concentration” value (SC 0.3 mL of 10 mg/mL A(1-7) in PBS, time point 20 min, individual rats) was 6.25 ng/mL and 15.7 ng/mL and 5.71 ng/mL and the “Angiotensin (1-7) concentration” value (SC 0.3 mL of 10 mg/mL A(1-7) in PBS, time point 40 min, individual rats) was 15.30 ng/mL and 6.38 ng/mL and 4.47 ng/mL. For the same compound, the “Angiotensin (1-7) concentration” value (SC 0.3 mL of 10 mg/mL A(1-7) in PBS, time point 60 min, individual rats) was 1.03 ng/mL and 2.65 ng/mL and 7.46 ng/mL, the “Angiotensin (1-7) concentration” value (SC 0.3 mL of 10 mg/mL A(1-7) in PBS, time point 90 min, individual rats) was 1.14 ng/mL and 6.59 ng/mL and 17.4 ng/mL and the level at 0 h (female, Sprague-Dawley, rat, plasma, 3 mg, SC 0.3 mL of 10 mg/mL A(1-7) in PBS, time point 0 min (before injection), Average, read-out: Angiotensin (1-7) concentration) was 4.5 ng/mL. The level at 5 min (female, Sprague-Dawley, rat, plasma, 3 mg, SC 0.3 mL of 10 mg/mL A(1-7) in PBS, time point 5 min, Average, read-out: Angiotensin (1-7) concentration) was 3.99 ng/mL, the level at 10 min (female, Sprague-Dawley, rat, plasma, 3 mg, SC 0.3 mL of 10 mg/mL A(1-7) in PBS, time point 10 min, Average, read-out: Angiotensin (1-7) concentration) was 6.88 ng/mL and the level at 20 min (female, Sprague-Dawley, rat, plasma, 3 mg, SC 0.3 mL of 10 mg/mL A(1-7) in PBS, time point 20 min, Average, read-out: Angiotensin (1-7) concentration) was 9.22 ng/mL. For the same compound, the level at 40 min (female, Sprague-Dawley, rat, plasma, 3 mg, SC 0.3 mL of 10 mg/mL A(1-7) in PBS, time point 40 min, Average, read-out: Angiotensin (1-7) concentration) was 8.72 ng/mL, the level at 1 h (female, Sprague-Dawley, rat, plasma, 3 mg, SC 0.3 mL of 10 mg/mL A(1-7) in PBS, time point 60 min, Average, read-out: Angiotensin (1-7) concentration) was 3.71 ng/mL and the level at 1.5 h (female, Sprague-Dawley, rat, plasma, 3 mg, SC 0.3 mL of 10 mg/mL A(1-7) in PBS, time point 90 min, Average, read-out: Angiotensin (1-7) concentration) was 8.38 ng/mL. For the same compound, the Tmax (female, Sprague-Dawley, rat, plasma, sc, 3 mg, 0.3 mL of 10 mg/mL A(1-7) subcutaneous injection, three rats, range over the group, read-out: Tmax after administration) was 10 to 90 min, the Half-Life (female, Sprague-Dawley, rat, plasma, sc, 3 mg, 0.3 mL of 10 mg/mL A(1-7) subcutaneous injection, three rats, read-out: Half-lives) was about 15 min and the AUC(0-t) (female, Sprague-Dawley, rat, plasma, sc, 3 mg, SC 0.3 mL of 10 mg/mL A(1-7) in PBS, Average (PK value of the mean concentrations)) was 0.0102 µg·h/mL. It also gave a Cmax (female, Sprague-Dawley, rat, plasma, sc, 3 mg, SC 0.3 mL of 10 mg/mL A(1-7) in PBS, Average (PK value of the mean concentrations), read-out: Cmax) of 9.2 ng/mL, a Tmax (female, Sprague-Dawley, rat, plasma, sc, 3 mg, SC 0.3 mL of 10 mg/mL A(1-7) in PBS, Average (PK value of the mean concentrations), read-out: Tmax (converted)) of 20 min and an AUC(0-t) (female, Sprague-Dawley, rat, plasma, sc, 3 mg, SC 0.3 mL of 10 mg/mL A(1-7) in PBS, Mean PK Value (average of individual PK parameters)) of 0.0102 µg·h/mL. For the same compound, the Cmax (female, Sprague-Dawley, rat, plasma, sc, 3 mg, SC 0.3 mL of 10 mg/mL A(1-7) in PBS, Mean PK Value (average of individual PK parameters), read-out: Cmax) was 17.2 ng/mL, the Half-Life (female, Sprague-Dawley, rat, plasma, sc, 3 mg, SC 0.3 mL of 10 mg/mL A(1-7) in PBS, Mean PK Value (average of individual PK parameters), read-out: Half-Life) was 15.1 min and the Tmax (female, Sprague-Dawley, rat, plasma, sc, 3 mg, SC 0.3 mL of 10 mg/mL A(1-7) in PBS, Mean PK Value (average of individual PK parameters), read-out: Tmax (converted)) was 40 min. The AUC(0-t) (female, Sprague-Dawley, rat, plasma, sc, 3 mg, SC 0.3 mL of 10 mg/mL A(1-7) in PBS, individual rats) was 0.00972 µg·h/mL, the Cmax (female, Sprague-Dawley, rat, plasma, sc, 3 mg, SC 0.3 mL of 10 mg/mL A(1-7) in PBS, individual rats, read-out: Cmax) was 18.6 ng/mL and the Half-Life (female, Sprague-Dawley, rat, plasma, sc, 3 mg, SC 0.3 mL of 10 mg/mL A(1-7) in PBS, individual rats, read-out: Half-Life) was 15 min.
